One assay has as its target T1, Coagulation factor XII (Homo sapiens, UniProt P00748).
T1 sequence (P00748 whole entry): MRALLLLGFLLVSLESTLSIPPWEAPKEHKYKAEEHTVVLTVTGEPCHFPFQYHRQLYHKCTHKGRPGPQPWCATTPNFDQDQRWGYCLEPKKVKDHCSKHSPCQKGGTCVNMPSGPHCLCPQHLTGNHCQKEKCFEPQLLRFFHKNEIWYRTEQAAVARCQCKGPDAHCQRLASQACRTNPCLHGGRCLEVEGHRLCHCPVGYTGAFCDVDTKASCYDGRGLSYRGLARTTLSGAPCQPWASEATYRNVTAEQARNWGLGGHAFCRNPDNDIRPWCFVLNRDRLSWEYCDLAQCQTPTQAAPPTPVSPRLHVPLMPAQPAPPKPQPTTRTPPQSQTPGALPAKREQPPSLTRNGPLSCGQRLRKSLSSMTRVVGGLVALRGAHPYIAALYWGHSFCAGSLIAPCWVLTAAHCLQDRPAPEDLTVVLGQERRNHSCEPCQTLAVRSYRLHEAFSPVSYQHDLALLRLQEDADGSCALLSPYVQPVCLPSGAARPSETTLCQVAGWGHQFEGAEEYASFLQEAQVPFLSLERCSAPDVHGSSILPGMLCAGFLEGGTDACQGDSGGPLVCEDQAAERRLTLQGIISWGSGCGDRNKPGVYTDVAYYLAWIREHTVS
The experiment in a line: Factor XIIa Dose Response Confirmation from Single Well HTS. [Related pubchem assays (depositor defined):AID701]. It is filed as functional.

Assay [1] deals with DNA damage-inducible transcript 3 protein (Mus musculus, UniProt P35639). In kind it is functional, Cricetulus griseus.
Assay [2] concerns the target Intestinal-type alkaline phosphatase (Homo sapiens, UniProt P09923). The experiment in a line: human intestinal alkaline phosphatase activators, dose response, biochemical, luminescence, uHTS hits (AID 463120). In kind it is functional.
Assay [3] addresses T2, Peroxisome proliferator-activated receptor gamma (Homo sapiens, UniProt P37231).
T2 sequence (P37231 whole entry): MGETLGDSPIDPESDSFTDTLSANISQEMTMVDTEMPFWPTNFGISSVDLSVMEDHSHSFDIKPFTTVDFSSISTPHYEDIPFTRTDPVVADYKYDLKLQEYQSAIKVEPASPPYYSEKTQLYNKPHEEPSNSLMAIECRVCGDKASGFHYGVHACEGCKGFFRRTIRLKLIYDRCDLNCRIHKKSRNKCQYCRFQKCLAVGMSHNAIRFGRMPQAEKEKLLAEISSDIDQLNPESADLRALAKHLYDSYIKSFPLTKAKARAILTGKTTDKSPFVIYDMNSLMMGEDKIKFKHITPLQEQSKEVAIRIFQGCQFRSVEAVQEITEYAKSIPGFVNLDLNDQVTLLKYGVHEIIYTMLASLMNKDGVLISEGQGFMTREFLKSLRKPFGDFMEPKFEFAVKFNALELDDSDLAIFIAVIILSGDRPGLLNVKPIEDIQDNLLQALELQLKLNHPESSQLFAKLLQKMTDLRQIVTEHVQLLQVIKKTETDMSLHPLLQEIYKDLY
The experiment in a line: competitive ligand displacement at PPARg – biochemical, TR-FRET, LanthaScreen, PPARg partial agonist project, dose response (AID 504446). For orientation: Time-resolved FRET reads energy transfer from a long-lived donor to a nearby acceptor.

Assay [4] concerns the target T2, Peroxisome proliferator-activated receptor gamma. The experiment in a line: PPARg transcriptional activation, reporter cells – cell-based, luminescence, assay provider, dose response (AID 504447). It is filed as functional.
For assay [5] the target is unchanged. In words: competitive ligand displacement at PPARg – biochemical, fluorescence polarization, PolarScreen, PPARg partial agonist project, dose response (AID 504453). (Polarisation of emitted light reports the rotation of a fluorescent probe.)
Assay [6] addresses Kappa-type opioid receptor (Homo sapiens, UniProt P41145). In words: SAR analysis of small molecule agonists of the kappa opioid receptor via a luminescent beta-arrestin assay - Set 3. [Related pubchem assays (depositor defined):AID1777, AID1785, AID1786, AID1966, AID2133, AID2136, AID2284, AID2500]. It is filed as functional.
Assay [7] has as its target Sphingosine 1-phosphate receptor 1 (Homo sapiens, UniProt P21453). The experiment in a line: Fluorescence-based counterscreen assay for S1P4 agonists: Cell-based dose response high throughput screening assay to identify agonists of the Sphingosine 1-Phosphate Receptor 1 (S1P1). [Related pubchem assays (depositor defined):AID1509, AID1523, AID1801, AID463107, AID463118, AID463119, AID463122, AID463123, AID463129, AID463225, AID504400, AID504460]. It is filed as functional. (A counterscreen serves to expose hits that act by an unwanted route or on another target.)

Assay [8] concerns the target Sphingosine 1-phosphate receptor 2 (Homo sapiens, UniProt O95136). In words: Dose Response Cell Based Assay for Agonists of the S1P2 Receptor. [Related pubchem assays: 729, 736, 843 ]. In kind it is functional.
The target in the next assay is T3, Aminopeptidase N (Plasmodium falciparum FcB1/Columbia, UniProt O96935).
T3 sequence (O96935 whole entry): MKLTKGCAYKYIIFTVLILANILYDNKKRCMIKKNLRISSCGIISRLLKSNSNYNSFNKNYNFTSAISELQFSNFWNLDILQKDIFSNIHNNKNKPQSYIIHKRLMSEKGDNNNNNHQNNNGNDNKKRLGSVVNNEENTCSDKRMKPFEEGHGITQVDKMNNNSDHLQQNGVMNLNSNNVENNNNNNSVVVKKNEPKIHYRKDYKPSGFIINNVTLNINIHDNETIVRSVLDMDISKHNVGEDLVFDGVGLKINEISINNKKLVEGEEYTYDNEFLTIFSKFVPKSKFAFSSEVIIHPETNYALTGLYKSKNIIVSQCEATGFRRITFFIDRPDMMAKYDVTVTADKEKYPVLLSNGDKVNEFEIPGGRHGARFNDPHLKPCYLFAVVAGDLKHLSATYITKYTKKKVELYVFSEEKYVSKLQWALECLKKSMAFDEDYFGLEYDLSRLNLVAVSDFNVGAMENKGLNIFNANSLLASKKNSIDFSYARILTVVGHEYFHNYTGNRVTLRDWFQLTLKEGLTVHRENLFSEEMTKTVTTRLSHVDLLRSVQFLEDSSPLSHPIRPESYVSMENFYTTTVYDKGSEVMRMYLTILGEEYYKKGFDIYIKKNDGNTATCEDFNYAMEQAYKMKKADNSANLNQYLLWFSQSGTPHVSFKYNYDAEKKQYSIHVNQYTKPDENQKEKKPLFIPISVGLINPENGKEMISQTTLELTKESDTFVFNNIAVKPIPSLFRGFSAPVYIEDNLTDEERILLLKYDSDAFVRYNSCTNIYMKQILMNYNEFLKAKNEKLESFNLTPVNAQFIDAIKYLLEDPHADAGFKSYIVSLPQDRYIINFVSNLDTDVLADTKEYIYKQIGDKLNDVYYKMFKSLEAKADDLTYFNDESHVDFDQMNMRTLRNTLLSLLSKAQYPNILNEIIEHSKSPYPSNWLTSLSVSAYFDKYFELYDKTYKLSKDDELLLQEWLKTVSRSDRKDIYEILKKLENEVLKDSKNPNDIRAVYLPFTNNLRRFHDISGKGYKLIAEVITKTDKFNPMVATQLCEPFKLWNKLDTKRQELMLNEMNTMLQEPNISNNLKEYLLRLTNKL
In words: malaria alanyl aminopeptidase activity blockers – biochemical, fluorogenic H-Leu-NHMec substrate, 1536-well (AID 1445). Also on record: species or system Plasmodium falciparum 3D7, 3D7.

Assay [9] addresses Sphingosine 1-phosphate receptor 4 (Homo sapiens, UniProt O95977). The experiment in a line: Fluorescence dose response cell-based high throughput screening assay for agonists of the Sphingosine 1-Phosphate Receptor 4 (S1P4). [Related pubchem assays: 1509 (Primary screen.), 1523 (Confirmation screen in triplicates.)]. It is filed as functional.
The target in assay [10] is Voltage-dependent T-type calcium channel subunit alpha-1H (Homo sapiens, UniProt O95180). In words: inhibition of CACNA1H calcium flux – cell-based, SynthLib3 library, HEK293 Cav3.2, fluorescence (AID 493041). In kind it is functional.
A short description of assay [11]: Counterscreen for AddAB inhibitors: absorbance-based bacterial cell-based high throughput dose response assay for inhibitors of bacterial viability. [Related pubchem assays (depositor defined):AID435030, AID449728, AID449731, AID488942, AID488955, AID488956]. It is filed as functional.
For the next assay, the target named is Exodeoxyribonuclease V (Escherichia coli (strain K12), UniProt P04993+P07648+P08394). The experiment in a line: RecBCD inhibition via phage-restricted bacterial growth – absorbance, V66 E. coli, mutant T4 phage, counter-screen for AddAB inhibitor project, dose response (AID 492957). In kind it is functional, cell-based, Escherichia coli str. K-12 substr. MG1655.
Exodeoxyribonuclease V, sequence (P04993 whole entry): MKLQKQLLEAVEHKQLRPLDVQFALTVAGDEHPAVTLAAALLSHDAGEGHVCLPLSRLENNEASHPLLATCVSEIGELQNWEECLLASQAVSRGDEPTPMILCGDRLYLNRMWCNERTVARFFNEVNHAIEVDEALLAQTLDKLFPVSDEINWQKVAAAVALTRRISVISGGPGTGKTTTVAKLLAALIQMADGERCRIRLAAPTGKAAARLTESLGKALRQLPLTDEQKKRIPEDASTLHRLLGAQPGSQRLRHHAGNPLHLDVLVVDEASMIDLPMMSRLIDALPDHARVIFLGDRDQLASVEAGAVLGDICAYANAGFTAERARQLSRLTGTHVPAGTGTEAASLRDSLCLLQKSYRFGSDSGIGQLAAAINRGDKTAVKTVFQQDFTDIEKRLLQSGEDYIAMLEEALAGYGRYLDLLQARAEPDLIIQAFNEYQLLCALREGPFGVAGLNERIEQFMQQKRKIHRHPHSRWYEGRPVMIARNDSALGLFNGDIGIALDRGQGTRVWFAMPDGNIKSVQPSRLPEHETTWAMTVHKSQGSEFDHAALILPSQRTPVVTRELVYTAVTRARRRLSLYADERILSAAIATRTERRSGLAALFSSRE
Exodeoxyribonuclease V, sequence (P07648 whole entry): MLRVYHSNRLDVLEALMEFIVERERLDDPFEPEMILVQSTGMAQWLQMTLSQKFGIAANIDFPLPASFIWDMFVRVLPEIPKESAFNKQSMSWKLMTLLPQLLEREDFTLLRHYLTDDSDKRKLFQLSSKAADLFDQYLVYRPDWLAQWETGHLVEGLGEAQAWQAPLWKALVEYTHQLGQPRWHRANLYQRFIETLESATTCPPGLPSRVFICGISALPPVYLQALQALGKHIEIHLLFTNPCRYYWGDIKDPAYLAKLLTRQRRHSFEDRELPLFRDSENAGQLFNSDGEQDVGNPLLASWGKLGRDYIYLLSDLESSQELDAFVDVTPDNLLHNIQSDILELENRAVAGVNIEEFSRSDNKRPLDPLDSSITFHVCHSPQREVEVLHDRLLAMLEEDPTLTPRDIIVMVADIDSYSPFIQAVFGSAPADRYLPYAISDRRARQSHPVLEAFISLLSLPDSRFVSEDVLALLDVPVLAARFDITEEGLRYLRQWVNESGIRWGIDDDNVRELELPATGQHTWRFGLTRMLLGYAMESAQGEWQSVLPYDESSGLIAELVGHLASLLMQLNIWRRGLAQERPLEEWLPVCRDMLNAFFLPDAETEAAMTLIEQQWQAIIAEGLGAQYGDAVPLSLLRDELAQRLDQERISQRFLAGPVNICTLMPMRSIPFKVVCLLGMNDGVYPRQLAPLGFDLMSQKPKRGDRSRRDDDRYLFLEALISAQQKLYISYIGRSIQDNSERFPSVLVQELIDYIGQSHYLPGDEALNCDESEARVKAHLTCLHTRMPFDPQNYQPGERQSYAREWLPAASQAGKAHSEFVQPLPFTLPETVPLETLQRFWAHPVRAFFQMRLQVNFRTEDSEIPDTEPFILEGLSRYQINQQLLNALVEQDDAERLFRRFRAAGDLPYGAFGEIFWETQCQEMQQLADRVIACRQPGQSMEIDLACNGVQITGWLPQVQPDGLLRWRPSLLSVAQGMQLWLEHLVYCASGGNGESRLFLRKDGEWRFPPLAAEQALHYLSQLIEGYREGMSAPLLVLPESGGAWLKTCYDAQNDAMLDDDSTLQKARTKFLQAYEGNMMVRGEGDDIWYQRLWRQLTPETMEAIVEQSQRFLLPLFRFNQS
Exodeoxyribonuclease V, sequence (P08394 whole entry): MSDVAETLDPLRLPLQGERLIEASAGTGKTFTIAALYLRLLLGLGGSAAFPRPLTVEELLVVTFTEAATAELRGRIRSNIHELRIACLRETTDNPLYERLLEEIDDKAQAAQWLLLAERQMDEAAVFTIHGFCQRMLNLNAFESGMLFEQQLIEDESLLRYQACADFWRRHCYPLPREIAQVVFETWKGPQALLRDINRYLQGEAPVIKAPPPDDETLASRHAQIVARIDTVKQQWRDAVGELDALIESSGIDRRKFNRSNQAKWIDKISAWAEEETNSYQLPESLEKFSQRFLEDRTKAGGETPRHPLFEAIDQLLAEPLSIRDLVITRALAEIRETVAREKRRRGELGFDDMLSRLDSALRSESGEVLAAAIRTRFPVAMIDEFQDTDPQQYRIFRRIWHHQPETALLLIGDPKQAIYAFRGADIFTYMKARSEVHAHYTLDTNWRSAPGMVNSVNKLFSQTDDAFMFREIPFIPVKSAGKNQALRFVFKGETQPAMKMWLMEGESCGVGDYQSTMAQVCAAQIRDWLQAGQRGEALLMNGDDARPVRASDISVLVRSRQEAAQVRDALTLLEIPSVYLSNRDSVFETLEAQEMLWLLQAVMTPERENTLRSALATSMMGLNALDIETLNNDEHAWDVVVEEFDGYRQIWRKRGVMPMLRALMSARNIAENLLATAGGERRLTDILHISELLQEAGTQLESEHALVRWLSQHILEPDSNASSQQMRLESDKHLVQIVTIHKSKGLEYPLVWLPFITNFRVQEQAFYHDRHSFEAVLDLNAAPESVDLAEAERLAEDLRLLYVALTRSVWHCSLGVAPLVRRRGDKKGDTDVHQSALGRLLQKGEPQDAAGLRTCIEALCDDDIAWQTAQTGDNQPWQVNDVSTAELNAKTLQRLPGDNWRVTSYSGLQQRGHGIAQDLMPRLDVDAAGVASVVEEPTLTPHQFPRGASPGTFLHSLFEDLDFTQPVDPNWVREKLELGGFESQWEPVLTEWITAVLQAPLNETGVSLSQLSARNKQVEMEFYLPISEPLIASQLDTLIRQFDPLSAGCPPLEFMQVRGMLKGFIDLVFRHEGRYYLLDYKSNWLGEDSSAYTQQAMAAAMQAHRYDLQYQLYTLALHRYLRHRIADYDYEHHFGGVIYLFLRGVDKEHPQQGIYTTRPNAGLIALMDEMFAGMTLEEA

Another assay addresses Troponin, cardiac muscle (Homo sapiens, UniProt P19429+P45379+P63316). In words: Fluorescence-based biochemical high throughput dose response assay for activators of the calcium sensitivity of cardiac Regulated Thin Filaments (RTF). [Related pubchem assays (depositor defined):AID493008, AID493018, AID504382, AID504383]. In kind it is protein-complex assay.
The nature of assay [12]: compound autofluorescence in calcium buffer – biochemical, fluorescence, no RTF in test wells, artefact control for cardiac thin filament activator project, dose response (AID 504697).
Assay [13] in a line: Luminescence Cell-Based Dose Response HTS to Identify Activators of Luciferase Translation or Activity in H4 […] Cells. [Related pubchem assays: 1829 (Project Summary), 1814 (Primary HTS)]. In kind it is functional.
For assay [14], the target named is Signal transducer and activator of transcription 1-alpha/beta (Homo sapiens, UniProt P42224). The experiment in a line: STAT3 blockade with qPCR and toxicity readouts – cell-based, STAT1 panel, cytotoxicity, late-stage follow-up, panel member STAT1 Inhibition (AID 2078).
In assay [15] the target is Signal transducer and activator of transcription 3 (Homo sapiens, UniProt P40763). The experiment in a line: STAT3 blockade with qPCR and toxicity readouts – cell-based, STAT1 panel, cytotoxicity, late-stage follow-up, panel member STAT3 Inhibition (AID 2078).
Signal transducer and activator of transcription 3, sequence (P40763 whole entry): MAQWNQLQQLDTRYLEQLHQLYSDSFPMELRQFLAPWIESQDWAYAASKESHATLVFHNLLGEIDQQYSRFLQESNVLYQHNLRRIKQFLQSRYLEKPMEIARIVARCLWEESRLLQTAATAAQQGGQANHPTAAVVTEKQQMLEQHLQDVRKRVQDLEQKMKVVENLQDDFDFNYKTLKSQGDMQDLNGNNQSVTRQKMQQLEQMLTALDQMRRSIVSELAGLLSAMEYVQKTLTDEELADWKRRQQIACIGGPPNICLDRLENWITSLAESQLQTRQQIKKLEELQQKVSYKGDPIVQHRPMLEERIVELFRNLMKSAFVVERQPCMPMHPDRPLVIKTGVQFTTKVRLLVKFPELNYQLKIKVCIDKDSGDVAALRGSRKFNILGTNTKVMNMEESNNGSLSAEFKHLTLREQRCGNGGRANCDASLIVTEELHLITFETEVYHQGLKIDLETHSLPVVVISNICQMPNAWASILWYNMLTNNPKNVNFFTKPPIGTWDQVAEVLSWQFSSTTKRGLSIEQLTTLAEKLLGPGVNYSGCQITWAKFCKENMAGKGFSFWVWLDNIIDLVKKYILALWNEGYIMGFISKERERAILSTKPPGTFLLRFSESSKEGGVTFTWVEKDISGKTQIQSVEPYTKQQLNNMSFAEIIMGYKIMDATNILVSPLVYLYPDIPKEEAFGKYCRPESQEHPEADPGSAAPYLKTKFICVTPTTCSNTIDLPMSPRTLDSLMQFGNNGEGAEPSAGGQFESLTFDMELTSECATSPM

The source made the active and inactive calls.

Sphingosine 1-phosphate receptor 1, sequence (P21453 whole entry): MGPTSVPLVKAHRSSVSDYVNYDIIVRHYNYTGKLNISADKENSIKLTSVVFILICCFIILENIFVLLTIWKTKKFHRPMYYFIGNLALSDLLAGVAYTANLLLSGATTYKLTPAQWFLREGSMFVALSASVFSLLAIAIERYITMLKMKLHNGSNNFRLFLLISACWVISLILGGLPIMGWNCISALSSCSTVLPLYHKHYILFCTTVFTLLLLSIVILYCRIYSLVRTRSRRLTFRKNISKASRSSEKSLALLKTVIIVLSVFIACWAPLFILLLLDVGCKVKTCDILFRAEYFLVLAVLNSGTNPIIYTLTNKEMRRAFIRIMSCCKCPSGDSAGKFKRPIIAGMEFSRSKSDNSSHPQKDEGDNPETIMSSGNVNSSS
Intestinal-type alkaline phosphatase, sequence (P09923 whole entry): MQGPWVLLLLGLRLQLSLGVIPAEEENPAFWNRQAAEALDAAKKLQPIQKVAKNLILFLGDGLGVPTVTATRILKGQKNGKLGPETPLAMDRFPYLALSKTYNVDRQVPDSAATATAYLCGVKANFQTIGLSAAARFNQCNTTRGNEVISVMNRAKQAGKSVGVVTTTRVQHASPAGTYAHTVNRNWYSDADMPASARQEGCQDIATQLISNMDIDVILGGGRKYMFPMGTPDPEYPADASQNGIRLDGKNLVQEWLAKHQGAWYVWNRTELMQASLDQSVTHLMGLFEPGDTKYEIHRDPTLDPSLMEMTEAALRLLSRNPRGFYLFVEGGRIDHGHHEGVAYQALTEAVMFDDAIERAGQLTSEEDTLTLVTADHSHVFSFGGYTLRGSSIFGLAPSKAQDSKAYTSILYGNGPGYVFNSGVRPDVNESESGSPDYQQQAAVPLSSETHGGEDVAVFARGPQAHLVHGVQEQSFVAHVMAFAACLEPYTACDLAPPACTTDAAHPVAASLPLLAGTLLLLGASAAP
Kappa-type opioid receptor, sequence (P41145 whole entry): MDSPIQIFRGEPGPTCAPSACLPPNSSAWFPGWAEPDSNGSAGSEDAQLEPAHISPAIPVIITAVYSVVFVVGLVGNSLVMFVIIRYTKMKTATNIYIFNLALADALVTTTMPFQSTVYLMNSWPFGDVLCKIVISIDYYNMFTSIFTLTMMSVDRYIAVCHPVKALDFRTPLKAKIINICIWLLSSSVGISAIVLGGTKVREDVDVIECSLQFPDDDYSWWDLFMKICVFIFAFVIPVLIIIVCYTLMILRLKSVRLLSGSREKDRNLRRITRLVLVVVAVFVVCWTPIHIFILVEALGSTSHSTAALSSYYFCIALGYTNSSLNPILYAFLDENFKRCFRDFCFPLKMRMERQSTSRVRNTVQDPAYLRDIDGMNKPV

As for `CC(/N=c1\ccccn1C(=O)Nc1cccc(C(F)(F)F)c1)c1ccco1` (centres undefined), at Coagulation factor XII, the IC50 (usually the midpoint of a concentration-inhibition curve) was > 50 µM (inactive).

Take `CCOC(=O)c1c(CN2CCOCC2)n(-c2ccccc2)c2cc(Br)c(O)cc12.Cl`: in assay [1], the “Absolute IC50 (CHOP)” value amounted to 10 µM.

Take `Cc1ccc(Cl)cc1NC(=O)C(=O)N/N=C/c1ccc2c(c1)OCO2`: the EC50 (usually the midpoint of the concentration-response curve) in [2] is 29.6 µM (active).

`Cc1ccc2nc(N3C(=O)C(O)=C(C(=O)c4ccc(C)o4)C3c3ccco3)sc2c1` (centres undefined): the IC50 in assay [3] was 2.6 µM (active); in assay [5], 22 µM (active). In addition, the EC50 in assay [4] is 18 µM (active).

Consider `CCCCN(Cc1cc2cc(Cl)ccc2[nH]c1=O)C(=O)c1ccccc1`, for which the EC50 in [6] is > 20 µM (inactive).

As for `CC(C)n1c(=N)c(C(=O)NCCc2ccccc2)cc2c(=O)n3ccccc3nc21`, the figures for the EC50 in assay [7], in [8] and in assay [9] were 15.9 µM (inactive), 4.8 µM (active) and 5.78 µM (active), respectively. Moreover, the IC50 on Aminopeptidase N is 58.6 µM (active).

In the case of `CCC(CC)CN1C[C@@H]2C(CNC(=O)c3cc(Cl)cc(Cl)c3)[C@@H]2C1` (some centres undefined), the EC50 in assay [10] was 1.2 µM (active).

With `CCOc1ccc2oc(C(=O)NNC(=O)c3ccccc3O)c(C)c2c1`, the IC50 (in assay [11]; at Exodeoxyribonuclease V) was > 119 µM (inactive) throughout.

Consider `N=c1oc2c3c4c(cc2cc1C(=O)Nc1ccccc1)CCCN4CCC3`, for which the concentration for a half-maximal effect (EC50) was > 0.0109 µM (active) on Troponin, cardiac muscle; > 0.0109 µM (active) in assay [12]; 8.27 µM (active) in [13].

In the case of `Fc1ccc(CC2CCN(c3ncnc4sccc34)CC2)cc1`, the IC50 in assay [14] is > 55.7 µM (inactive); in [15], 2.54 µM (active).

The values above are taken from ChEMBL document CHEMBL1201862, “PubChem BioAssay data set” (2004).
